In ChEMBL document CHEMBL1201862, “PubChem BioAssay data set” (2004):
Activity calls are given as the source filed them.

Columns and labels:
[1] = molecular target: T1, Short transient receptor potential channel 4 (Mus musculus, UniProt Q9QUQ5); test: block of DAMGO-driven TRPC4 calcium entry – cell-based, HEK293 TRPC4/mu-opioid, Fluo-4 calcium, dose response (AID 434942); type: functional;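 also: potency of inhibitors blocking the TRPC4 calcium response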
T1 sequence (Q9QUQ5 whole entry): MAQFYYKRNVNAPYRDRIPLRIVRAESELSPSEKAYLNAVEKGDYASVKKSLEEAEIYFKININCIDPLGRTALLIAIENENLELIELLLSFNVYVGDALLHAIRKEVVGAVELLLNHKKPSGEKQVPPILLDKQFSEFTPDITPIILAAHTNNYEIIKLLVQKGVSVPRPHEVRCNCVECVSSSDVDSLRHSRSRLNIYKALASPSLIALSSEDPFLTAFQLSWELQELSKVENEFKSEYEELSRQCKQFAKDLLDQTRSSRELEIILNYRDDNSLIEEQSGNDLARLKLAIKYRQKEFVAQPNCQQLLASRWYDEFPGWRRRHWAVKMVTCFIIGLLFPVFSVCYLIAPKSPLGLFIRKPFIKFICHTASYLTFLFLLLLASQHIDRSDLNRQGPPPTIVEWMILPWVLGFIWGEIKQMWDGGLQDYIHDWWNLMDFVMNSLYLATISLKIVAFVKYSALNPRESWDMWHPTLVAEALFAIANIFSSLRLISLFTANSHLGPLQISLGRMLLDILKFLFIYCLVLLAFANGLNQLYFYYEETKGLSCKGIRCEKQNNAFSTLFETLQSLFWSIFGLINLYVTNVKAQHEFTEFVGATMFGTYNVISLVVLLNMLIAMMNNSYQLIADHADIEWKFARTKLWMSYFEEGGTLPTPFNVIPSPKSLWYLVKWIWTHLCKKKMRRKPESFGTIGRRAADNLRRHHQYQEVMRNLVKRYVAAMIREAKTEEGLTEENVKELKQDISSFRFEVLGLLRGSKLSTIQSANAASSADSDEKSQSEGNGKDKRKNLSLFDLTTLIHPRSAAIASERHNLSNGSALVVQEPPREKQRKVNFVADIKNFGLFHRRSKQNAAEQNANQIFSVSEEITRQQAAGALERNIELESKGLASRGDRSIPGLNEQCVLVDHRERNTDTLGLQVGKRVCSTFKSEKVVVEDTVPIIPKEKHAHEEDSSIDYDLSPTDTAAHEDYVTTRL

[2] = molecular target: Delta-type opioid receptor (Homo sapiens, UniProt P41143); test: Counterscreen for agonists of heterodimerization of the mu 1 (OPRM1) and delta 1 (OPRD1) opioid receptors: Luminescence-based cell-based high throughput dose response assay to identify agonists of OPRD1 homodimerization. [Related pubchem assays (depositor defined):AID504326, AID504355, AID504692, AID504904, AID504905]; type: functional
Mu-type opioid receptor = Mu-type opioid receptor (Homo sapiens, UniProt P35372); test: Counterscreen for agonists of heterodimerization of the mu 1 (OPRM1) and delta 1 (OPRD1) opioid receptors: Luminescence-based cell-based high throughput dose response assay to identify agonists of OPRM1 homodimerization.; type: functional;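 also: U2OS cells expressing OPRM1 and beta-arrestin as split beta-galactosidase partners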
[3] = molecular target: 5-hydroxytryptamine receptor 5A (Homo sapiens, UniProt P47898); test: Counterscreen for agonists of OPRM1-OPRD1 heterodimerization: luminescence-based cell-based high throughput dose response assay to identify agonists of 5-hydroxytryptamine (serotonin) 5A receptor (HTR5A). [Related pubchem assays (depositor defined):AID504326, AID504355, AID504692, AID504904, AID504905]; type: functional
Streptokinase A = molecular target: T2, Streptokinase A (Streptococcus pyogenes serotype M1, UniProt P10520); test: viability-normalized secreted streptokinase activity reduction – plasminogen activation absorbance, OD405, dose response (AID 1914); type: functional, Streptococcus pyogenes M1 GAS;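 also: secreted streptokinase activity via plasminogen activation per viability signal from cell pellet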
T2 sequence (P10520 whole entry): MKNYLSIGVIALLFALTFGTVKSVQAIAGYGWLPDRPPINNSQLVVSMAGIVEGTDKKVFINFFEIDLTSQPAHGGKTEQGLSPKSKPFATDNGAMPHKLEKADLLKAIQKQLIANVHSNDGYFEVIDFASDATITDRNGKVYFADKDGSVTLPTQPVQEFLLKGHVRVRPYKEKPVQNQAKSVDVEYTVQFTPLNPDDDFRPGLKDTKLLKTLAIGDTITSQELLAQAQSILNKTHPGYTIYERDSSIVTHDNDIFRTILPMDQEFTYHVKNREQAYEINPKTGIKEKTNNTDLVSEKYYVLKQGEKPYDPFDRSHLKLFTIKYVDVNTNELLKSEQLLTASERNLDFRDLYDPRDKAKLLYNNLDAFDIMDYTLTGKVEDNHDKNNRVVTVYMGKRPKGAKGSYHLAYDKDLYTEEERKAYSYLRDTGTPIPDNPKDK

[4] = molecular target: T3, Calpain-2 catalytic subunit (Sus scrofa, UniProt P43367); test: m-calpain protease blockers, concentration series – biochemical, fluorogenic peptide substrate, dose response (AID 1420); type: functional
T3 sequence (P43367 whole entry): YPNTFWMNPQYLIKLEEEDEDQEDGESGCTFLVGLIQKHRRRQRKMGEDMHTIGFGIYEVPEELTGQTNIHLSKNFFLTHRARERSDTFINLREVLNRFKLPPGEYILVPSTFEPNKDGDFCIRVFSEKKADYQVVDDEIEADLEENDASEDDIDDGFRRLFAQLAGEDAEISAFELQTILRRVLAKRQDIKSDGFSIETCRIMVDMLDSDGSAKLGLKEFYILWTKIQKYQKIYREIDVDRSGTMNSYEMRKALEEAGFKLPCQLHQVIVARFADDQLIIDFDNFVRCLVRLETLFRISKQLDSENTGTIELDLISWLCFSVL

Streptococcus = test: GAS UMAA2166 growth inhibition – luminescence, BacTiterGlo, counter-screen for streptokinase expression inhibitor project, dose response (AID 1915); type: functional, organism-based;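 also: potency for reduction of bacterial viability or growth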
[5] = molecular target: Heat shock protein HSP 90-alpha (Homo sapiens, UniProt P07900); type: functional, organism-based
Vero = test: cells; type: functional; settings: Chlorocebus sabaeus
[6] = molecular target: E3 ubiquitin-protein ligase Mdm2 (Homo sapiens, UniProt Q00987); test: MDM2-luc reporter signal enhancers, multi-concentration potency testing, MDM2 ubiquitin-protein ligase inhibitor program, whole-cell format, luminescence detection, 384-well microplate (AID 1394); type: functional;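 also: MDM2 E3 inhibitors raise luminescence so EC50 is for signal enhancement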
Large T antigen = Large T antigen (Simian virus 40, UniProt P03070); type: functional, Betapolyomavirus macacae;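 also: Confirmatory-stage PubChem screen for compounds that inhibit SV40 T antigen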
[7] = molecular target: T4, Lysine-specific demethylase 4C (Homo sapiens, UniProt Q9H3R0); test: inhibition of JMJD2C H3K9me3 demethylation – biochemical, DELFIA europium, cherry-picked samples, dose response (AID 488835); type: functional
T4 sequence (Q9H3R0 whole entry): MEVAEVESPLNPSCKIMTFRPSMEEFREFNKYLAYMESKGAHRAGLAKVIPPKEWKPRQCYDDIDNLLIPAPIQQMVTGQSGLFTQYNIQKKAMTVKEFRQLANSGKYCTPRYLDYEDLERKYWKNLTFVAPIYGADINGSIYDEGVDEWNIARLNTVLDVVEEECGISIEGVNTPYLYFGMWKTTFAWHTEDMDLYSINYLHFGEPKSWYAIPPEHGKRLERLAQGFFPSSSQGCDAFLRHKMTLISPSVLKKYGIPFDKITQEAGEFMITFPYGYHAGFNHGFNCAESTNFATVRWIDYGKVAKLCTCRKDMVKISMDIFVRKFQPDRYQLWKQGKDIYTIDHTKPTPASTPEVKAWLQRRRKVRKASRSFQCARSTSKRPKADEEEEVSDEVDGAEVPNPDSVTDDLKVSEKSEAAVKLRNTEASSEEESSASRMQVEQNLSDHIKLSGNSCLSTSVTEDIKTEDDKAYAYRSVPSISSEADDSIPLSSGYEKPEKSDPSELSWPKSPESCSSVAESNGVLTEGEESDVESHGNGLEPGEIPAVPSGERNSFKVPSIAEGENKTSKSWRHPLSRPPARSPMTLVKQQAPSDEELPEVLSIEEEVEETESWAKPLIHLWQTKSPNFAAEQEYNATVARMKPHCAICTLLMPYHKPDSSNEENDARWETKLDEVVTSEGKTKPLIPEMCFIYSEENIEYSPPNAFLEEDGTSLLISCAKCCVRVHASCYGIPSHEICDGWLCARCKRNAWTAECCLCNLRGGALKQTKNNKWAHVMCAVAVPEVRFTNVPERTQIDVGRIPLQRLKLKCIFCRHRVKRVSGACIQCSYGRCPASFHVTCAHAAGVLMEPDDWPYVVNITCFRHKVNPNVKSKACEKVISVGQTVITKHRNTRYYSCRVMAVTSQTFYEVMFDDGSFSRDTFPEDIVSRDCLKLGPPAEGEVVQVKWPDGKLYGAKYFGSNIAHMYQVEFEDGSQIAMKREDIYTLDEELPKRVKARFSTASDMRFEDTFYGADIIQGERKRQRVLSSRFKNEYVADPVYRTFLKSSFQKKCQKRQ

[8] = molecular target: T5, Long-chain-fatty-acid--AMP ligase FadD28 (Mycobacterium tuberculosis, UniProt P9WQ59); test: Fluorescence polarization aasay to screen for inhibitors that compete for the binding of FadD28 to a bisubstrate Measured in Biochemical System Using Plate Reader - 2147-01_Inhibitor_Dose_CherryPick_Activity.; type: functional, Mycobacterium tuberculosis H37Rv
T5 sequence (P9WQ59 whole entry): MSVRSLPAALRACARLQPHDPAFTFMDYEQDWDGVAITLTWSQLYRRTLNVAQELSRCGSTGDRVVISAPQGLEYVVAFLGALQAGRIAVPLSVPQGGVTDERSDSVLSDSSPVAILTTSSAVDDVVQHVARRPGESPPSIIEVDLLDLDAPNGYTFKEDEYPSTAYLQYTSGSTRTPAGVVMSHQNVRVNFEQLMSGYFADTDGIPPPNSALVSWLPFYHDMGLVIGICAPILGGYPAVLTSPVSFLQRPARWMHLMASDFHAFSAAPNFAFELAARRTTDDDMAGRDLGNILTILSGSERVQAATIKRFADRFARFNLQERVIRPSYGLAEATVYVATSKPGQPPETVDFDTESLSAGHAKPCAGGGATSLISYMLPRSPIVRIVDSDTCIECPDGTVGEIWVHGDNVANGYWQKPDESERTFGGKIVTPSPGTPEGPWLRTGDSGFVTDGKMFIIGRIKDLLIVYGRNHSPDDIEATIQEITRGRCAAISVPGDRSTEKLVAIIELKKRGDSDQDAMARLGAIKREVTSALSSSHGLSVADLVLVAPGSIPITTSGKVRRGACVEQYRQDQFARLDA

5-hydroxytryptamine receptor 5A, sequence (P47898 whole entry): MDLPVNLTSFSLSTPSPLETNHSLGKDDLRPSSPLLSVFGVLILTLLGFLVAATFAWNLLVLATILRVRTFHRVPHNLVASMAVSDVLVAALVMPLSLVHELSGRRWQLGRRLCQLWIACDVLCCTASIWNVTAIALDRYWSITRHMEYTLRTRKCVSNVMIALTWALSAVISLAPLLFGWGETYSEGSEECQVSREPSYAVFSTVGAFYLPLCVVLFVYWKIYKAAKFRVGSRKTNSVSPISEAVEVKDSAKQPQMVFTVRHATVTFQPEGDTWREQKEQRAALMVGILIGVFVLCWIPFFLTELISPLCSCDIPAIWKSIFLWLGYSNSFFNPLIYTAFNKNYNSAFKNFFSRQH
Delta-type opioid receptor, sequence (P41143 whole entry): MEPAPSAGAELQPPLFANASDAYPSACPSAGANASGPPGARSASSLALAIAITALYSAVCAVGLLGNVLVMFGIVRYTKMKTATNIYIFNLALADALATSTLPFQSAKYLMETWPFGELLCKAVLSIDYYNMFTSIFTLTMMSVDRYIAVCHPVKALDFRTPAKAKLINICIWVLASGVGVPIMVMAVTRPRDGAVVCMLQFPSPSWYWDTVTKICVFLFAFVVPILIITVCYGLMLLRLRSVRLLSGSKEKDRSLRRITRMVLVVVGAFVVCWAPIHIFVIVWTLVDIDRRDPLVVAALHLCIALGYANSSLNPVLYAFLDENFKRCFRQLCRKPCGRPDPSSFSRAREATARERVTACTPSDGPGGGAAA
Mu-type opioid receptor, sequence (P35372 whole entry): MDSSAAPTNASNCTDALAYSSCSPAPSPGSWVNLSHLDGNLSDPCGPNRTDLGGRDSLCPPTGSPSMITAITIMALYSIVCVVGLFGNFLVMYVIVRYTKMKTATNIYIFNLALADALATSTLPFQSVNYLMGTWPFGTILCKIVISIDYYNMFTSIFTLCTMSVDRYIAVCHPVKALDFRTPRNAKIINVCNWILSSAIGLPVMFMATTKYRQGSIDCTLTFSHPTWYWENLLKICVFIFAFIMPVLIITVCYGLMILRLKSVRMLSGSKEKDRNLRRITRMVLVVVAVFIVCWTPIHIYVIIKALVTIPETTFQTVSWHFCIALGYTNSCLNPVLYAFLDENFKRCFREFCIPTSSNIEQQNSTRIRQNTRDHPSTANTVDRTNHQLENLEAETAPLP
Large T antigen, sequence (P03070 whole entry): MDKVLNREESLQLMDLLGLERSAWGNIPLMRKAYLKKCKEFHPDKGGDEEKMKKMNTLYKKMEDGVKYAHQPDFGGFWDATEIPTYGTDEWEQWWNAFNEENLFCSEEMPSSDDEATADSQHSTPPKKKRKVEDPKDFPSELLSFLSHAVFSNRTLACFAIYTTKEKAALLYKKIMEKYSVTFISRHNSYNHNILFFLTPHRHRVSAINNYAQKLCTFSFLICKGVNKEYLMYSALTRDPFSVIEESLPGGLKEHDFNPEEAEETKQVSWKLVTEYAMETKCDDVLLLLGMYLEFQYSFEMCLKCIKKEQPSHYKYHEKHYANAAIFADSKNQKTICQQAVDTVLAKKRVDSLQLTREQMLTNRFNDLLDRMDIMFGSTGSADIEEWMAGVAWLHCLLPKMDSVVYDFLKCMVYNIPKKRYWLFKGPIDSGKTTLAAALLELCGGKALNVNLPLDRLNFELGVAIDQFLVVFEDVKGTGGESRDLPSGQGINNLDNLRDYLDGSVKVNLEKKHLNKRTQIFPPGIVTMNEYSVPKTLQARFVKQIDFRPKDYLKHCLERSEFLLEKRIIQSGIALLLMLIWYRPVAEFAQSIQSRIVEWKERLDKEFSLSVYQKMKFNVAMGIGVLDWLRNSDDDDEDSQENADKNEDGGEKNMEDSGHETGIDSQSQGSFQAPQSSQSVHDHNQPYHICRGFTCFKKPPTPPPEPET
E3 ubiquitin-protein ligase Mdm2, sequence (Q00987 whole entry): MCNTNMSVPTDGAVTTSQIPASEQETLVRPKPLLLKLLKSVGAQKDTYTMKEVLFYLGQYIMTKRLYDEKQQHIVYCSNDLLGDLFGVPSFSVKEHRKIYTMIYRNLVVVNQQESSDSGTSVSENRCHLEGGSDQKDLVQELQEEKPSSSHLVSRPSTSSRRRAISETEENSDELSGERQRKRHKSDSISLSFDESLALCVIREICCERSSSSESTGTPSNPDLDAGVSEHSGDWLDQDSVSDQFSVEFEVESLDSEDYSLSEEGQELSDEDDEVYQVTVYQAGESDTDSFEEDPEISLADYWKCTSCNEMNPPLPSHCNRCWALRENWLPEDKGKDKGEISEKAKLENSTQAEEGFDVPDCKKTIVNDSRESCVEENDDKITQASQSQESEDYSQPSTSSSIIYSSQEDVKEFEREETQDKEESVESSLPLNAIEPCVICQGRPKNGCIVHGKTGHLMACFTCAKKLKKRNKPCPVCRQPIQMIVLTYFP

For CN(C)C(CNC(=O)c1cccc(C(F)(F)F)c1)c1ccco1 (centres undefined), the EC50 [1] was 0.376 µM (active), the EC50 [2] was > 92.4 µM (inactive) and the EC50 (Mu-type opioid receptor) was > 92.4 µM (inactive). The EC50 [3] was > 92.4 µM (inactive).

With CCCc1ccc(Oc2c[nH]nc2-c2ccc(O)c(C)c2O)cc1 the EC50 (Streptokinase A) was > 150 µM (not active), the IC50 [4] was 38.2 µM (not active) and the EC50 (Streptococcus) was 8.83 µM (active). The AC50 [5] was 3.08 µM (active) and the CC50 (Vero) was > 25 µM (active).

In the case of CCN1C(=O)C(=C/C=C/c2ccco2)C(=O)N(CC)C1=S, the EC50 [6] is reported as 25 µM (not active), the IC50 (Large T antigen) is reported as 45.3 µM (active) and the AC50 [7] is reported as 1.18 µM (active). The AC50 [8] was > 100 µM (inactive).

With CN(C)C(CNC(=O)CSC(=S)N1CCCC1)c1ccccc1 (centres undefined) the EC50 [2] was > 92.5 µM (inactive), the EC50 (Mu-type opioid receptor) was 17.1 µM (inactive) and the EC50 [3] was > 92.5 µM (inactive).

In the case of COc1ccccc1NC(=O)c1sc2nc(C)cc(C)c2c1N, the EC50 [2] is reported as > 92.5 µM (inactive), the EC50 (Mu-type opioid receptor) is reported as > 92.5 µM (inactive) and the EC50 [3] is reported as > 92.5 µM (inactive).
